The values below come from patent US5762960A (Trustees of Tufts College, priority 1996, dated 1998).

The structures appear in SMILES notation. Where two headings read alike, the source gives them in different places.

For series [1] the following is noted: cited from earlier work.
The test system of series [2] is norepinephrine uptake. Set-up: Amine Uptakes Blocking Activity Norepinephrine: key to the marks not given beside the values. The following applies: cited from earlier work; for Amine Uptakes Blocking Activity Norepinephrine: Table 3; for Interaction and blocking activity at the norepinephrine receptor site: in words, text commenting on Table 6.
Series [3] deals with canine affective aggression behavior. In words: Case histories: treatment of household dogs exhibiting canine affective aggression.
Source text: The clinical diagnosis was affective aggression behavior which was dominance aggression and/fear aggression.
The test system of series [4] is dopamine receptors. The following applies: in words, footnote 3 and text on Table 6; cited from earlier work.
For series [5], the system named is dopamine uptake. The following applies: in words, footnote 5 of Table 6; cited from earlier work.
Where [6] appears, read: Table 6, parent compound plus active metabolite.
The mark [7] stands for this setting: Case 4, Cocker Spaniel, orally 25 mg daily, after two months.

Turning to `CNCCCC1c2ccccc2C=Cc2ccccc21` [Protriptyline, protriptyline], the Half-life in series [1] (human, in vivo) was 67 to 89 h. Moreover, in series [1] (in vivo), the Therapeutic plasma level is 100 to 200 ng/mL and the “Time to reach steady state” value is 14 to 19 days.
With `CNCCCN1c2ccccc2CCc2ccccc21` [Desipramine, desipramine], the Half-life in series [1] (human, in vivo) was 12 to 24 h. Moreover, in series [1] (in vivo), the Therapeutic plasma level was 125 to 300 ng/mL and the “Time to reach steady state” value is 2 to 11 days.
Regarding `CNCCCC12CCC(c3ccccc31)c1ccccc12` [Maprotiline, maprotiline], in series [1] (Table 6), the “Time to reach steady state” value is 6 to 10 days. Also, the Therapeutic plasma level in series [1] (setting [6]) is 200 to 300 ng/mL. Also, the Half-life in series [1] (human, in vivo) was 21 to 25 h.
Take `CN(C)CCC=C1c2ccccc2CCc2ccccc21` [Amitriptyline]: in series [2], the “Amine Uptakes Blocking Activity Norepinephrine” value was “++”; the “Interaction and blocking activity at the norepinephrine receptor site” value was “modest or slight”. In addition, in series [1] (Table 3), the Half-life was 31 to 46 h. Besides, the “Therapeutic Plasma Level” value in series [1] (Table 3, marked ^1, footnote printed only under Table 6: parent compound plus active metabolite) is 110 to 250 ng/mL. Further, the Half-life in series [1] (Table 6) was 31 to 46 h. For the same molecule, in series [1] (setting [6]), the Therapeutic plasma level is 110 to 250 ng/mL. Besides, in series [1] (in vivo), the “Time to Reach Steady State” value was 4 to 10 days and the “Time to reach steady state” value is 4 to 10 days.
In the case of `CC(CN(C)C)CN1c2ccccc2CCc2ccccc21` (stereo not drawn) [Trimipramine, trimipramine], in series [1] (Table 6), the Half-life is 7 to 30 h. Also, the “Time to reach steady state” value in series [1] (in vivo) was 2 to 6 days.
With `CN(C)CCCN1c2ccccc2CCc2ccc(Cl)cc21` [Clomipramine, 3-chloro-10,11-dihydro-N,N-dimethyl-5H-benzo-[b,f]azepine-5-propamine], the “Owner-noted change in aggressive behavior” value in series [3] (Case 1, Australian Shepherd, 25 mg daily, after one week's treatment) is on record as “slight improvement”. Further, the “Improvement in aggression behavior” value in series [3] (Case 1, Australian Shepherd, 25 mg daily, after several weeks' treatment) is recorded as “maintained”. For the same molecule, the “Owner-rated improvement of behavior” value in series [3] (Case 1, Australian Shepherd, 25 mg daily, three weeks after start) was 50-75%. For the same molecule, the “Owner rating of behavior” value in series [3] (Case 2, Lhasa Apso, dominance and territorial aggression, approx. 1 mg/kg twice a day for one week then approx. […] twice a day, after two weeks) is “slightly improved”. Moreover, in series [3] (Case 2, Lhasa Apso, through the eight weeks following termination of administration), the “Persistence of improvement in aggressive behavior” value was “sustained”. Moreover, the Improvement in behavior result in series [3] (Case 3, German Shepherd, fear and territorial aggression, once a day slightly less than 1 mg/kg, after two weeks) is “Moderate improvement”. For the same molecule, in series [3] (Case 3, German Shepherd, once a day slightly less than 1 mg/kg, eight weeks after initiation), the Improvement in behavior result is on record as “moderate improvement”. Also, the “Owner-rated improvement in behavior” value in series [3] (Case 4, Cocker Spaniel, dominance/fear aggression, orally 25 mg daily, after one week) is 25-50%. In addition, the Owner-reported behavior entry in series [3] (Case 4, Cocker Spaniel, orally 25 mg daily, after one month) was “much calmer on the street”. Moreover, in series [3] (setting [7]), the Improvement in behavior is on record as 50-75% and the Owner-reported behavior entry was “essentially non-aggressive”. Further, in series [3] (Case 4, Cocker Spaniel, orally 25 mg daily, after two weeks), the Owner-reported behavior entry was “fine in the house”. Besides, in series [3] (conclusion from the four case histories, no behavior modification therapy), the “Overall effectiveness for treatment of interspecific affective aggression in dogs” value is listed as “very effective”. Further, in series [2], the “Amine Uptakes Blocking Activity Norepinephrine” value is “++”; the “Interaction and blocking activity at the norepinephrine receptor site” value is given as “modest or slight”. In series [1] (in vivo), the “Therapeutic Plasma Level” value was 80 to 100 ng/mL, the Therapeutic plasma level is 80 to 100 ng/mL, the “Time to Reach Steady State” value was 7 to 14 days and the “Time to reach steady state” value is 7 to 14 days.
Take `Fc1ccc([C@@H]2CCNC[C@H]2COc2ccc3c(c2)OCO3)cc1` [Paroxetine, paroxetine]: the Half-life in series [1] (Table 6) is 10 to 24 h. The “Time to reach steady state” value in series [1] (in vivo) is 7 to 14 days.
As for `Clc1ccc2c(c1)C(N1CCNCC1)=Nc1ccccc1O2` [Amoxapine, amoxapine], the “Dopamine receptor blockade / interaction” value in series [4] is on record as “blocks dopamine receptors”. In addition, the Half-life in series [1] (human, in vivo) was 8 h. In series [1] (in vivo), the Therapeutic plasma level is 200 to 500 ng/mL and the “Time to reach steady state” value was 2 to 7 days.
As for `CNCCC(Oc1ccc(C(F)(F)F)cc1)c1ccccc1` (stereo not drawn) [Fluoxetine, fluoxetine], the “Time to reach steady state” value in series [1] (in vivo) is listed as 2-4 weeks.
In the case of `CN(C)CCCN1c2ccccc2CCc2ccccc21` [Imipramine, imipramine], the “Time to reach steady state” value in series [1] (in vivo) is 2 to 5 days.
`CN(C)CCC=C1c2ccccc2COc2ccccc21` [Doxepin, doxepin]: in series [1] (human, in vivo), the Half-life was 8 to 24 h. Also, in series [1] (in vivo), the “Time to reach steady state” value was 2 to 8 days.
For the molecule `CNCCC=C1c2ccccc2CCc2ccccc21` [Nortriptyline, 3-(10,11-Dihydro-5H-dibenzo[a,d]cyclohepten-5-ylidene)-N-methyl-1-propamine], in series [1] (Table 3), the Half-life was 18 to 44 h and the “Time to Reach Steady State” value is 4 to 19 days. In series [1] (Table 6), the Half-life was 18 to 44 h and the “Time to reach steady state” value is 4 to 19 days.
Regarding `CC(C)NCC(O)COc1cccc2ccccc12` (stereo not drawn) [inclerol], the “Effect on aggressive behavior” value in series [3] (Case 1, Australian Shepherd, 14-year old castrated male, beta-blocker for one week) is reported as “only increased his aggressive behavior”.
On to `CN[C@H]1CC[C@@H](c2ccc(Cl)c(Cl)c2)c2ccccc21` [Sertraline, sertraline], for which the “Time to reach steady state” value in series [1] (in vivo) is recorded as 7 days.
As to `CC(NC(C)(C)C)C(=O)c1cccc(Cl)c1` (stereo not drawn) [Bupropion, bupropion], the Dopamine uptake inhibition result in series [5] is given as “Inhibits dopamine uptake”. In addition, in series [1] (Table 6), the Half-life is 8 to 24 h and the “Time to reach steady state” value is 1.5 to 5 days.
